# Measured values taken from the pKa sets of Baltruschat and Czodrowski (2020).
# Conditions: acidic group
row,SMILES,pKa
1,O=C(O)C=C=Cc1ccccc1,3.7
2,CCCCCOc1ccc(O)cc1,10.2
3,O=[N+]([O-])c1ccc(O)cc1,7.13
4,O=CO,3.69
5,Oc1cccc(O)c1,9.56
6,Sc1ccc2ccccc2[nH+]1,-1.44
7,c1ccc2cc3[nH]cnc3cc2c1,12.5
8,O=CNOC(=O)/C=C/c1ccccc1,5.9
9,CN(C)c1cccc(/C(=N\O)C(F)(F)F)c1,9.3
10,O=[PH]([O-])C(NCc1ccncc1)c1ccccc1O (stereo not drawn),11.9
11,Cn1cnc2nc([O-])nc(O)c21,10.6
12,O=C(c1ccc([N+](=O)[O-])cc1)c1cc[nH]n1,11.7
13,C/C(O)=C/C(N)=O,9.46
14,CS(=O)O,2.35

# Continued, values first:
row,pKa,SMILES
1,3.28,O=C(O)[C@@H]1O[C@H](Oc2ccc(I)cc2)[C@@H](O)[C@H](O)[C@H]1O
2,4.5,COCC1=C(C(=O)O)CCC1
3,9.7,CC(=O)c1cc(C(=O)C(C)(C)C)[nH]n1
4,0.37,O=C1C(=O)C(c2ccccc2)C1=O
5,3.02,O=C(O)[C@@H]1O[C@H](Oc2ccc(Br)cc2)[C@@H](O)[C@H](O)[C@H]1O
6,3.9,Cn1cnc(C(=O)[O-])c1C(=O)O
7,2.96,[NH3+]CCC(=O)NC(Cc1c[nH]c[nH+]1)C(=O)O (stereo not drawn)
8,8.8,Cc1cn([C@@H]2C[C@@H](O)[C@H](CO)O2)c(=O)[nH]c1=S
9,6.37,O=S(=O)(Nc1ncccn1)c1ccc(O)cc1
10,9.35,Oc1ccc2cn[nH]c2c1
11,7.83,CS(=O)(=O)c1ccc(O)cc1
12,10.2,CCOc1ccc(O)cc1
13,10.7,CC(C)(C)Cc1ccccc1O
14,12.9,O=C1CCC([O-])=C1O
15,11.1,CC(=S)Nc1ccc(Cl)cc1
16,1.6,COc1nc(C)cc(O)[nH+]1
17,-0.97,Nc1nc2c(ncn2[C@@H]2C[C@@H](O)[C@H](CO)O2)c(O)[nH+]1
18,6.3,CC(C)CCC1C(=O)C(O)C(CCC(C)C)(CCC(C)C)C1=O (stereo not drawn)
19,2.54,CC(C)C[C@H]([NH3+])C(=O)O
20,14,Cc1ccc(O)c(C(=O)[O-])c1

# Same assay, conditions: basic group
row,SMILES,pKa
1,C=CC(C)(C)Nc1ccccc1,4.88
2,c1ccc2cc3[nH]cnc3cc2c1,5.24
3,[NH3+]CCc1cccnc1,4.64
4,NS(=O)(=O)c1ccccc1C(=O)O,3.14
5,COc1ccc(NCCS)cc1,5.3
6,C[NH+](C)CCCCNc1ccnc2cccc([N+](=O)[O-])c12,6.71
7,C=CC(=O)NC(C)(C)CCN(CC)CC,10.1
8,CCN(CC)CCCC#N,9.29
9,CC(C)(C)SC(=N)c1ccccc1,9.24
10,Cc1cccc(N)c1C,4.56
11,O=[PH]([O-])C(NCc1ccncc1)c1ccccc1O (stereo not drawn),8.05
12,CCNN(C)C,6.58
13,NCCCCc1ccccc1,10.4
14,NCC[NH2+]Cc1ccccc1,6.48
15,CCCCCCCCCCNCCC(=O)[O-],10.6
16,C1CNCCNCCN1,10.6
17,CCCCCCCCN(CC(C)O)CC(O)CC (stereo not drawn),8.1
18,CSC(C)=N,6.71
19,CNC(C)CC1CCCCC1 (stereo not drawn),10.5
20,CC(C)(C)c1cc(N)cc(C(C)(C)C)c1[N+](=O)[O-],2.93
21,O=C(O[C@@H]1C[C@H]2CC[C@@H](C1)N2)[C@H](CO)c1ccccc1,10.3
22,Nc1nccs1,5.44
23,C[C@]1(N)C[C@@H]1N,9.06
24,CC1CCCCN1C (stereo not drawn),10.3
25,N[C@H]1CCc2ccccc21,9.21
26,CN(C)/C=N/c1ccc(Cl)cc1,8.46

# Second part, the compound after the results:
row,pKa,SMILES
1,5.25,Cc1ccc2cccnc2c1
2,8.7,Cc1cccc(C)c1/C(=N/CCCN(C)C)c1ccccc1
3,7.06,O=[N+]([O-])c1cccc2nccc(NCCCO)c12
4,6.41,Cc1[nH]cnc1CSCCNC(=[NH2+])NCCCc1c[nH]c[nH+]1
5,8.84,COc1cc(Br)cc(C(=O)N[C@@H]2C[C@H]3CC[C@@H](C2)N3Cc2ccccc2)c1OC
6,3.37,Cc1ccccc1/C(=N\CCC[NH+](C)C)c1ccccc1Cl
7,7.1,Cc1cc(C)c(CO)c(C)n1
8,2.3,N/C(=N\O)C([NH3+])c1ccccc1 (stereo not drawn)
